“Also recorded” adds a separate entry of the source.
How the values were obtained:
[1] = test system: seizures induced by a 6 Hz alternating current in mice; test: 6 Hz seizure model; format: in vivo; details: for Protected/Tested: 6 Hz 32 milliamp; for Protected/Tested / Deaths: 0.50 hr; for Deaths: 6 Hz
[2] = test system: blue light induced photoreceptor injury; test: blue light induced photoreceptor injury (ERG and histology); format: in vivo, Sprague Dawley rat
Method: Exposure to blue light results in a loss of photoreceptor cells in the outer retina (arrows).
Hemotoxylin and Eosin stained retinal sections are imaged and outer nuclear layer (ONL) thickness and cell count is evaluated in 8 consecutive regions on either side of the optic nerve head (ONH) (A). In Sprague Dawley rat the typical ONL thickness and photoreceptor cell counts adjacent to the ONH are approximately 40 microns and 10 cells, respectively (B). The cell counts and thicknesses from a retinal section taken from the vertical meridian reveal that in naïve retinae they are stable from just adjacent to ONH in to the ora serata (C,D).
Rat eyes were cut parallel to the vertical meridian through the optic nerve head and several sections were collected. […] Within each […] region, 3 measurements, […] apart, were conducted, averaged and reported as ONL thickness (um). The number of rod and cone nuclei spanning the outer nuclear layer at each measurement site were counted manually and tabulated as photoreceptor #. For each animal, two to three sections were analyzed and averaged to give a final quantifiable value.

[3] = test system: Experimental Autoimmune Encephalomyelitis (EAE); test: Experimental Autoimmune Encephalomyelitis (EAE), clinical score and flash VEP; format: in vivo, rats
Source text: Encephalomyelitis (EAE). (A) Representative flash Visual Evoked Potential (VEP) traces from baseline and following the induction of EAE. Three distinct peaks, N1, P2, N2 are labeled in the traces, with P2 being the most reproducible. Note that following the induction of EAE the latency to the P2 peak is increased. This is associated with a poor visual outcome in Optic Neuritis in humans. […] The maximum clinical score is the score associated with the most severe paralysis each animal experienced during the daily observation period.

[4] = biological target: T1, Nav1.3 (Homo sapiens, UniProt Q9NY46); test: gigohm-seal manual patch-clamp (MPC) on HEK cells stably transfected with sodium channels; format: cell-based
T1 construct: expressed in transfected cells; host or cells: HEK cells, stably transfected
T1 sequence (Q9NY46 whole entry): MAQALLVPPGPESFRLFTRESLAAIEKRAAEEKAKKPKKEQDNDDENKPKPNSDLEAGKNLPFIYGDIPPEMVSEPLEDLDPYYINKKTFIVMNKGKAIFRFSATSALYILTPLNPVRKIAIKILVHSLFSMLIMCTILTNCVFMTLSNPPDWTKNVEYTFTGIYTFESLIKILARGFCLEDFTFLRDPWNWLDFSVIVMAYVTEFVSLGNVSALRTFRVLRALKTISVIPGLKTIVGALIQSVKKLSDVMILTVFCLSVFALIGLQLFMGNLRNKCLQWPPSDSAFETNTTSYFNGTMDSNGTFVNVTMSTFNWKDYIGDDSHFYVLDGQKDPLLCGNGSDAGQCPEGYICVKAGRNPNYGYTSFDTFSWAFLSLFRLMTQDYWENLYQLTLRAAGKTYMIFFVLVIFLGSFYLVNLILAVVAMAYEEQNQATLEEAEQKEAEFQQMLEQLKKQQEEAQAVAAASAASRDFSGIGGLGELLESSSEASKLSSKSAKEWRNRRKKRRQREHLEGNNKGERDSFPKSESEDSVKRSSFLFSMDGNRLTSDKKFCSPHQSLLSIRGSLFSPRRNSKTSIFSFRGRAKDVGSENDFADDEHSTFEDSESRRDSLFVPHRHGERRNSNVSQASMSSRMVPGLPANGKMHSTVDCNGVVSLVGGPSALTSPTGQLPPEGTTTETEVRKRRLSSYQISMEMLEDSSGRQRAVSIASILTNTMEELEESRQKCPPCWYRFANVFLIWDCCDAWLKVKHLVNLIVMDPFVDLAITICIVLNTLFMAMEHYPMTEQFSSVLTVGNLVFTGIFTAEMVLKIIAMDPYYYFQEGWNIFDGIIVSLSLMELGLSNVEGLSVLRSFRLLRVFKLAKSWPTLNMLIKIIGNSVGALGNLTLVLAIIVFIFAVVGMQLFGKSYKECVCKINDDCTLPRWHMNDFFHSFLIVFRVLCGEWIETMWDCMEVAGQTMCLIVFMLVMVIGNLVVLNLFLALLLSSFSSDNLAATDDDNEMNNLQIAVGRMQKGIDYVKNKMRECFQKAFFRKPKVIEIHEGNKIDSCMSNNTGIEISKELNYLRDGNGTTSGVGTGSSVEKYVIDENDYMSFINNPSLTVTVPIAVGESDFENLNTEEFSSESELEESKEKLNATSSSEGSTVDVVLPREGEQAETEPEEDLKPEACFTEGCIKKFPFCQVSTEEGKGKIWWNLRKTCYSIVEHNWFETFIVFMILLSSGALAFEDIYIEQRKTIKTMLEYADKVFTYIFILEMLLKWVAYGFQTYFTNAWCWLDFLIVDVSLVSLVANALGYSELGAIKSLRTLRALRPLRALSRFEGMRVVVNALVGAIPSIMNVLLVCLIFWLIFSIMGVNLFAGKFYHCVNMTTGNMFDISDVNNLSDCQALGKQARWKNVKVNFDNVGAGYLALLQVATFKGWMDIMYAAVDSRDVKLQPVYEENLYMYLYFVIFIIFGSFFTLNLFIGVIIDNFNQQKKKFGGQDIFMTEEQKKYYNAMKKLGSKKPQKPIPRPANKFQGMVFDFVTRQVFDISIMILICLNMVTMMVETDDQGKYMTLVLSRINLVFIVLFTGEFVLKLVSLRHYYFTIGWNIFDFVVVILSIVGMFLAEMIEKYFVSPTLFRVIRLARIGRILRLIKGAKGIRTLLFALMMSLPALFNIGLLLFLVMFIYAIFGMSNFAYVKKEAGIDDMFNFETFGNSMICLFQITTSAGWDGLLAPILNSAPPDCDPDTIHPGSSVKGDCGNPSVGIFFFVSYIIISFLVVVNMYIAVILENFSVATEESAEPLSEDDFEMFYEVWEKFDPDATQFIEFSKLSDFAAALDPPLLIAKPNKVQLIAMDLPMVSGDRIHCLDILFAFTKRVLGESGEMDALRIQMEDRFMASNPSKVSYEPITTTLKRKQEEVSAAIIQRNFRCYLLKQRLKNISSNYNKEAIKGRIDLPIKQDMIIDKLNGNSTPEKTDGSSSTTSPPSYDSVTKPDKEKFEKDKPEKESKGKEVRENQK
Method: Therefore, the efficacy and selectivity of the identified persistent current antagonists were verified using conventional gigohm-seal manual patch-clamp (MPC).
MPC experiments were conducted on human embroynic kidney (HEK) cells stably transfected with sodium channels were plated on coverslips. Cells were patch clamped using standard patch-clamp techniques (Hamill, O. P., A. Marty, et al., 1981 Pflugers Arch. 391:85-100). Once sufficient persistent current was established, buffer was introduced into the chamber at a constant flow rate of […] until the persistent current stabilized. Subsequent concentration-response experiments were conducted using this same flow rate. After application of the compound, current amplitude was monitored until equilibrium was established. The data recorded at equilibrium was normalized to the control current measured during perfusion with control buffer in the absence of a test compound. Adequate solution perfusion and gigohm seal stability were monitored throughout the experiment. The compound's antagonism of persistent or transient sodium currents is expressed as the IC5O of block for the respective current (see Table 1). Selectivity for block of the persistent current was calculated as the ratio of the IC5O for the transient current divided by the IC5O for the persistent current.

[5] = test system: rat cultured hippocampal pyramidal neurons; test: spontaneous firing of cultured hippocampal neurons, whole cell current clamp; format: cell-based; details: 1 μM, FIG. 2
Method: Activity of the compounds on the rate of spontaneous firing of neurons was assessed in hippocampal neurons. Hippocampal cells from P-2 rats were cultured for 10-14 days prior to use. Cells were plated on laminin-coated cover slips that could be transferred to a perfusion chamber for conventional whole cell electrophysiological studies. Conventional whole cell current clamp methods were used to record steady state and spontaneous action potentials. Cells were held at their resting potential (Iclamp=0 pA) and spontaneous action potentials were recorded and followed over time. Healthy cells had low rates of spontaneous firing. Spontaneous firing rate increased with metabolic insults to cells, e.g. Mg^2+-depletion or with aging. Spontaneous firing appeared to occur more often in older cell cultures (10-14 days).
The “current clamp” mode was employed tomeasure frequency of spontaneous discharge and action potential bursting in the absence and presence of compound #3 (1 μM). […] The results of these experiments contribute to the efficacy profile of the compounds of the present invention.

[6] = test system: mechanical allodynia produced by spinal nerve ligation; test: spinal nerve ligation (Chung Model), mechanical allodynia, von Frey hairs; format: in vivo, rats
Method: To assess the actions of the presently claimed benzimdazole compounds in neuropathic pain their efficacy in reversing the mechanical allodynia produced by spinal nerve ligation (Chung Model) and reducing the thermal hyperalgesia produced by subcutaneous injection of capsaicin was determined.
In the Chung spinal nerve ligation model, rats are anesthetized before surgery. The surgical site is shaved and prepared either with betadine or Novacaine. Incision is made from the thoracic vertebra XIII down toward the sacrum. Muscle tissue is separated from the spinal vertebra (left side) at the L4-S2 levels. The L6 vertebra is located and the transverse process is carefully removed with a small rongeur to expose the L4-L6 spinal nerves. The L5 and L6 spinal nerves are isolated and tightly ligated with 6-0 silk thread. The same procedure is done on the right side as a control, except no ligation of the spinal nerves is performed. […]
Compounds to be tested were prepared as suspension in vehicle containing 2% sodium carboxymethylcellulose (CMC) and 1% Pluronic FI 27 by vigorous homogenization. […] Tactile allodynia was measured prior to and at increments of 15, 30, 60 and 90 minutes after drug administration using von Frey hairs that are a series of fine hairs with incremental differences in stiffness. […] The applied force has been calculated to range from 0.41 to 15.1 grams. […]

[7] = test system: capsaicin-induced thermal hyperalgesia; test: capsaicin-induced thermal hyperalgesia, plantar test; format: in vivo, rat; details: doses 10 mg/kg and above, i.p., FIG. 10
Source text: A second method for evaluating of 1,2 substituted benzimidazoles on neuropathic pain was to determine their effects on capsaicin-induced thermal hyperalgesia in the rat.
Peripherally administered capsaicin (the active agent in chili peppers) induces an acute, local, inflammatory response through actions on nociceptive sensory nerve endings (‘pain fibers”). In rats, intraplantar injection of capsaicin produces decease in withdrawal latency to radiant heat (thermal hyperalgesia). This primary hyperalgesia, observed at the site of injury, is characterized by sensitization to thermal and mechanical stimulation. Primary hyperalgesia, especially that elicited by noxious thermal stimulus, is mediated, in part, by sensitization of C-fiber mechanoheat (polymodal) receptors (Kennis, 1982; Konietzny and Hensel, 1983; Simone, et al, 1987). […]
Intraplantar injection of capsaicin ([…]) was used to induce thermal hyperalgesia, as described previously(Gilchrist et al., 1996). […] For this test, hind paw withdrawal latencies (PWLs) to a noxious thermal stimulus were determined using the technique described by Hargreaves et al. (1988) using a plantar test apparatus (PAW
Thermal Analgesia Meter instrument Department of Anesthesiology, UCSD, San Diego, Calif.). Time to remove paw from heat source is measured and expressed as the paw withdrawal latency. […]
assessed 30 minutes after capsaicin challenge. […]

Compound: COc1cccc(OCc2nc3ccc(OCCC(C)C)cc3n2CC(C)C)c1 [Compound #2, 1-Isobutyl-2-(3-methoxy-phenoxymethyl)-6-(3-methyl-butoxy)-1H-benzimidazole]
- Protected/Tested ([1]; dose 12.5 mg/kg): 1/8
- Protected/Tested ([1]; dose 25.0 mg/kg): 3/8
- Protected/Tested ([1]; dose 50.0 mg/kg): 3/8
- Protected/Tested ([1]; dose 100.0 mg/kg): 5/8
- Protected/Tested ([1]; dose 200.0 mg/kg): 8/8
- Deaths ([1]; dose 12.5 mg/kg): 0
- Deaths ([1]; dose 25.0 mg/kg): 0
- Deaths ([1]; dose 50.0 mg/kg): 0
- Deaths ([1]; dose 100.0 mg/kg): 0
- Deaths ([1]; dose 200.0 mg/kg): 0
- EC50 in the 6 Hz seizure model ([1]; mice): 50.7 mg/kg
- predicted TD50 ([1]; mice): > 500 mg/kg
- retinal function and structure as determined by ERG and histology ([2]; 30 mg/kg i.p., 6 hour blue light exposure, FIG. 8): preserves retinal function and structure
- VEP latency (P2 peak) ([3]; 50 mg/kg, FIG. 11 B, C): preserves VEP latency
- maximum clinical score versus vehicle ([3]; FIG. 11): significantly (P<0.01) average lower clinical score
- initial clinical sign of paralysis ([3]; dose of 30 mg/kg, FIG. 11): significantly reduces

Compound: C=C(C)Cn1c(COc2cccc(OC)c2)nc2ccccc21 [Compound #3, 1-[1-(2-methylprop-2-enyl)benzimidazol-2-ylmethoxy]-3-methoxybenzene]
- concentration blocking 50% of the persistent current ([4]; FIG. 1): low to submicromolar
- IC50 ([4]; FIG. 1, read-out: effective dose for blocking the transient current): > 30 µM
- bursting activity (spontaneous bursts of action potentials) [5]: bursting activity was reduced
- spontaneous discharge of action potentials [5]: potently decreased
- retinal function as determined by ERG (b-wave and a-wave amplitude) ([2]; 100 mg/kg i.p., after blue light exposure, FIG. 6): significantly preserves retinal function
- structural integrity of the retina by histology (ONL thickness, photoreceptor count) ([2]; 100 mg/kg i.p., after blue light exposure, FIG. 7): preserved the structural integrity of the retina; also recorded: protects photoreceptors from blue-light induced toxicity
- allodynia with respect to vehicle injected controls ([6]; doses of 300 mg/kg, i.p., FIG. 9): significantly reduced
- reversal of mechanical allodynia ([6]; doses of 30 and 300 mg/kg, FIG. 9 legend): significantly reduced
- capsaicin-induced thermal hyperalgesia [7]: significantly reduces

— patent US9540332B2, “Benzimidazole derivatives as selective blockers of persistent sodium current” (Allergan, Inc., priority 2011, dated 2017)
